From the NIST ThermoML archive (doi:10.1021/acs.jced.5b01053) come the findings set out here.

± gives the expanded uncertainty stated by the source.

The conditions of data set [1]: 298.15 K; 101.33 kPa; Crystal; Vibrating tube method.
Data set [2] can be described thus: Solid-liquid equilibrium temperature. To be noted: 101 kPa; Crystal; DTA.
The nature of data set [3]: Molar enthalpy of transition or fusion. The following applies: Crystal; DSC.

For orientation: mass density means the mass of a sample divided by its volume. Consider `CS(=O)(=O)c1ccc(C=O)cc1` [4-(methylsulfonyl)benzaldehyde], for which, in data set [1], the mass density is given as 1289 ± 3 kg/m3. The Solid-liquid equilibrium temperature in data set [2] was 431.49 ± 1 K. Also, the “Molar enthalpy of transition or fusion” value in data set [3] came out at 6.26 ± 0.229 kcal/mol.
